Data from patent US6525059B1, “Substituted pyrazoles as p38 kinase inhibitors” (G. D. Searle & Company, priority 1998, dated 2003).
pIC50: −log10 of the molar value. Values joined by “and” are separate entries in the source; they are usually repeats but may differ in a detail not shown here. Identical values can stand only once. Counter-ions that a name gives are not always drawn.

How the values were obtained:
[1] = target: T1, human GST-p38 kinase alpha (Homo sapiens, UniProt Q16539); experiment: p38 kinase in vitro assay, second format, phosphorylation of EGFRP with 33P-ATP; type: biochemical; details: Table 9, 10% DMSO; read-out: p38α Kinase Assay IC50
T1 construct: The coding region of the human p38a cDNA was obtained by PCR-amplification from RNA isolated from the human monocyte cell line THP.1; made in house; host or cells: E. coli DH10B
T1 sequence (Q16539 whole entry): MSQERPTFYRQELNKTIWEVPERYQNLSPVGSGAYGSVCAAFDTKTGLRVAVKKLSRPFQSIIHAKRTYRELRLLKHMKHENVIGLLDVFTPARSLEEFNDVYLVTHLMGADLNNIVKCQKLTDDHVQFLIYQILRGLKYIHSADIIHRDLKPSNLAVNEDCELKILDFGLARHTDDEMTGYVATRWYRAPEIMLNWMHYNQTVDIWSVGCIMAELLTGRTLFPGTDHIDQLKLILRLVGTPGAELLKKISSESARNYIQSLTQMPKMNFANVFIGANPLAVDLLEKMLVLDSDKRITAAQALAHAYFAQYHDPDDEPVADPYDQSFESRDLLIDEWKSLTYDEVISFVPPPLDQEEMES
Method: A second assay format was also employed that is based on p38 kinase alpha induced phosphorylation of EGFRP (epidermal growth factor receptor peptide, a 21 mer) in the presence of ^33P-ATP. Compounds were tested in 10 fold serial dilutions over the range of 100 μM to 0.001 μM in 10% DMSO. Each concentration of inhibitor was tested in triplicate. Compounds were evaluated in 50 μl reaction volumes in the presence of 25 mM Hepes pH 7.5, 10 mM magnesium acetate, 4% glycerol, 0.4% bovine serum albumin, 0.4 mM DTT, 50 μM unlabeled ATP, 25 μg EGFRP (200 μM), and 0.05 uCi gamma ^33P-ATP. Reactions were initiated by addition of 0.09 μg of activated, purified human GST-p38 kinase alpha. Activation was carried out using GST-MKK6 (5:1, p38: MKK6) for one hour at 30° C. in the presence of 50 μM ATP. Following incubation for 60 minutes at room temperature, the reaction was stopped by addition of 150 μl of AG 1×8 resin in 900 mM sodium formate buffer, pH 3.0 (1 volume resin to 2 volumes buffer). The mixture was mixed three times with pipetting and the resin was allowed to settle. A total of 50 μl of clarified solution head volume was transferred from the reaction wells to Microlite-2 plates. 150 μl of Microscint 40 was then added to each well of the Microlite plate, and the plate was sealed, mixed, and counted.

human TNF = experiment: TNF inhibition: human whole blood assay; type: cell-based; details: Homo sapiens, Table 9, human whole blood, LPS; read-out: TNF Inhibition-Human Whole Blood Assay
TNF-α = experiment: Rat assay: LPS-challenged rats, serum TNF-α by ELISA; type: in vivo; details: Rattus norvegicus, po; for inhibition in vivo at 20 mg/kg: Table 9, dose 20 mg/kg; for inhibition in vivo at 1 mg/kg: Table 9, dose 1 mg/kg; for inhibition in vivo at 1 mg/kg / inhibition in vivo at 5 mg/kg: read-out: Rat LPS Assay % Inhibition; for inhibition in vivo at 5 mg/kg: Table 9, dose 5 mg/kg

## OC[C@H](Cc1ccccc1)Nc1cc(-c2c[nH]nc2-c2ccc(F)cc2)ccn1 [Example A-363, (βS)-β-[[4-[3-(4-fluorophenyl)-1H-pyrazol-4-yl]-2-pyridinyl]amino]benzene propanol]
[1]
  pIC50: 5.82
Human TNF
  pIC50: 4.60
TNF-α
  inhibition in vivo at 20 mg/kg: 6%

## CCN(CC)CCCNc1n[nH]c(-c2ccc(F)cc2)c1-c1ccncc1 [Example A-364, N,N-diethyl-N′-[5-(4-fluorophenyl)-4-(4-pyridinyl)-1H-pyrazol-3-yl]-1,3-propanediamine]
[1]
  pIC50: 6.31
Human TNF
  pIC50: 6.59
TNF-α
  inhibition in vivo at 20 mg/kg: 79%

## NC1CCN(c2[nH]nc(-c3ccc(F)cc3)c2-c2ccncc2)CC1 [Example A-365, 1-[5-(4-fluorophenyl)-4-(4-pyridinyl)-1H-pyrazol-3-yl]-4-piperidinamine, trihydrochloride]
[1]
  pIC50: 7.49
Human TNF
  pIC50: 7.24
TNF-α
  inhibition in vivo at 1 mg/kg: 12%
  inhibition in vivo at 5 mg/kg: 50%
  inhibition in vivo at 20 mg/kg: 95%

## CCN(CC)CCCC(C)Nc1nccc(-c2c[nH]nc2-c2ccc(F)cc2)n1 (stereo not drawn) [Example A-366, N1,N1-diethyl-N4-[4-[3-(4-fluorophenyl)-1H-pyrazol-4-yl]-2-pyrimidinyl]-1,4-pentanediamine]
[1]
  pIC50: 7.39 and 7.22 and 7.40
Human TNF
  pIC50: 6.54
TNF-α
  inhibition in vivo at 1 mg/kg: 6%
  inhibition in vivo at 5 mg/kg: 45%
  inhibition in vivo at 20 mg/kg: 92%

## C[C@@H](O)CNc1cc(-c2c[nH]nc2-c2ccc(F)cc2)ccn1 [Example A-368, (2R)-1-[[4-[3-(4-fluorophenyl)-1H-pyrazol-4-yl]-2-pyridinyl]amino]-2-propanol]
[1]
  pIC50: 7.38
Human TNF
  pIC50: 6.18
TNF-α
  inhibition in vivo at 1 mg/kg: 28%
  inhibition in vivo at 5 mg/kg: 41%
  inhibition in vivo at 20 mg/kg: 88%

## CCN(CC)CCCC(C)Nc1cc(-c2c[nH]nc2-c2ccc(Cl)cc2)ccn1 (stereo not drawn) [Example A-369, N4-[4-[3-(4-chlorophenyl)-1H-pyrazol-4-yl]-2-pyridinyl]-N1,N1-diethyl-1,4-pentanediamine]
[1]
  pIC50: 7.72 and 7.96 and 8.57
Human TNF
  pIC50: 6.08
TNF-α
  inhibition in vivo at 5 mg/kg: 52%
  inhibition in vivo at 20 mg/kg: 94%

## C[C@H](O)CNc1cc(-c2c[nH]nc2-c2ccc(F)cc2)ccn1 [Example A-370, (2S)-1-[[4-[3-(4-fluorophenyl)-1H-pyrazol-4-yl]-2-pyridinyl]amino]-2-propanol]
[1]
  pIC50: 6.80
Human TNF
  pIC50: 5.72
TNF-α
  inhibition in vivo at 5 mg/kg: 46%
  inhibition in vivo at 20 mg/kg: 90%

## CCOC(=O)N1CCN(c2[nH]nc(-c3ccccc3)c2-c2ccncc2)CC1 [Example A-371, ethyl 4-[5-phenyl-4-(4-pyridinyl)-1H-pyrazol-3-yl]-1-piperazinecarboxylate]
[1]
  pIC50: 5.10
Human TNF
  pIC50: 4.60
TNF-α
  inhibition in vivo at 20 mg/kg: 52%

## CCN(CC)CCNc1cc(-c2c[nH]nc2-c2ccc(F)cc2)ccn1 [Example A-374, N,N-diethyl-N′-[4-[3-(4-fluorophenyl)-1H-pyrazol-4-yl]-2-pyridinyl]-1,2-ethanediamine]
[1]
  pIC50: 6.42
Human TNF
  pIC50: 6.51
TNF-α
  inhibition in vivo at 1 mg/kg: 3%
  inhibition in vivo at 5 mg/kg: 0%
  inhibition in vivo at 20 mg/kg: 88%

## OCC(Nc1cc(-c2c[nH]nc2-c2ccc(F)cc2)ccn1)c1ccccc1 (stereo not drawn) [Example A-376, (βR)-β-[[4-[3-(4-fluorophenyl)-1H-pyrazol-4-yl]-2-pyridinyl]amino]benzene ethanol]
[1]
  pIC50: 7.49
Human TNF
  pIC50: 6.00
TNF-α
  inhibition in vivo at 20 mg/kg: 24%

## CCN(CC)CCCC(C)Nc1cc(-c2c[nH]nc2-c2ccc(F)cc2)ccn1 (stereo not drawn) [Example A-377, N1,N1-diethyl-N4-[4-[3-(4-fluorophenyl)-1H-pyrazol-4-yl]-2-pyridinyl]-1,4-pentanediamine]
[1]
  pIC50: 8.40 and 8.72
Human TNF
  pIC50: 6.17
TNF-α
  inhibition in vivo at 1 mg/kg: 32%
  inhibition in vivo at 5 mg/kg: 67%
  inhibition in vivo at 20 mg/kg: 84%
